Data reported in patent US20220324835A1 (Nurix Therapeutics, Inc., priority 2018, published 2022).

Assays:
T-cell [1] = assay: IL-2 secretion from T-cells co-stimulated with anti-CD3 and anti-CD28 antibody (Biological Example 2); format: cell-based, human; details: Homo sapiens, T-cell, primary human total T-cells, baseline = anti-CD3/anti-CD28 stimulated cells without inhibitor, read-out: IL-2 secretion, Anti-CD3/Anti-CD28 stimulation, fold change over baseline; for fold induction at 0.3 µM: 0.3 μM compound; for fold induction at 1 µM: 1 μM compound; for fold induction at 4 µM: 4 μM compound
In short: (§1)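 Values are fold-change over baseline: readings (IL-2 release, CD25 staining) from inhibitor-treated T-cells divided against untreated cells […]. No detailed procedure stated.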

T-cell [2] = assay: CD25 cell surface staining on T-cells co-stimulated with anti-CD3 and anti-CD28 antibody (Biological Example 2); format: cell-based, human; details: Homo sapiens, T-cell, primary human total T-cells, baseline = anti-CD3/anti-CD28 stimulated cells without inhibitor, read-out: CD25 staining, Anti-CD3/Anti-CD28 stimulation, fold change over baseline; for fold induction at 0.3 µM: 0.3 μM compound; for fold induction at 1 µM: 1 μM compound; for fold induction at 4 µM: 4 μM compound
In short: as §1

Cbl-b [3] = target: T1, Cbl-b (Homo sapiens, UniProt Q13191); assay: Cbl-b activity assay (Cbl-b inhibition assay), TR-FRET of Cbl-b interaction with UbcH5B-Ub; format: biochemical; details: assay buffer with 100 mM NaCl, 60 nM Src kinase; read-out: Cbl-b activity IC50
In short: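 Compound-treated Cbl-b was incubated 1.5 h with Src kinase (60 nM final; 30 nM for asterisked values, which also used 50 mM instead of 100 mM NaCl), 1 mM ATP and 5 mM MgCl2. Binding to fluorescent Ub-loaded UbcH5B (C85K mutant) was then read by TR-FRET after 1 h more.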

Cbl-b [4] = target: T1, Cbl-b; assay: Cbl-b inhibition assay (Cbl-b activity assay, FRET, Biological Example 1; 100 mM NaCl, 60 nM Src kinase); format: biochemical; details: upper bound stated in text lists; read-out: IC50 values in the Cbl-b inhibition assay of Biological Example 1
In short: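 Steps: Src kinase phosphorylates N-terminal biotinylated Avi-tagged Cbl-b; phosphorylated Cbl-b binds Bodipy-fluorescein ubiquitin-loaded UbcH5B; streptavidin-terbium on Cbl-b sits close to the fluorescein label, producing FRET. Inhibitors block UbcH5B-Ub binding.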

T1 sequence (Q13191 36-427): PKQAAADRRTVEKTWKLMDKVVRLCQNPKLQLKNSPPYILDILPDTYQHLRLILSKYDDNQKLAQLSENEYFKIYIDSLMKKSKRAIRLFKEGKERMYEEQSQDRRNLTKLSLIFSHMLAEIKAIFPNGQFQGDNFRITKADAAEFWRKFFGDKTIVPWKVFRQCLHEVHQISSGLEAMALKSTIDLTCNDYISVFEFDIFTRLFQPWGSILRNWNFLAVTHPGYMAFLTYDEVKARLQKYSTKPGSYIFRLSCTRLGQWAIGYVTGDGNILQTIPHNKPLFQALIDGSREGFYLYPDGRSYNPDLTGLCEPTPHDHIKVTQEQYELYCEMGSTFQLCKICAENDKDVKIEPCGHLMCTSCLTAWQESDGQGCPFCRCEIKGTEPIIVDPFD

Row | SMILES | fold induction at 0.3 µM (T-cell [1]) | fold induction at 1 µM (T-cell [1]) | fold induction at 0.3 µM (T-cell [2]) | fold induction at 1 µM (T-cell [2]) | IC50 (Cbl-b [3]) | IC50 (Cbl-b [4]) | fold induction at 4 µM (T-cell [1]) | fold induction at 4 µM (T-cell [2])
1 | Cn1cnnc1CC1(c2cccc(N3Cc4c(cc(CN5CCC[C@H](F)C5)cc4C(F)(F)F)C3=O)c2)COC1 [Compound 432, 6-{[(3S)-3-fluoropiperidin-1-yl]methyl}-2-(3-{3-[(4-methyl-4H-1,2,4-triazol-3-yl)methyl]oxetan-3-yl}phenyl)-4-(trifluoromethyl)-2,3-dihydro-1H-isoindol-1-one] | > 7.5 | > 7.5 | 1.31 to 1.5 | 1.31 to 1.5 | < 100 nM | ≤ 100 nM |  | 
2 | Cn1cnnc1C(F)(F)[C@](C)(F)c1cccc(N2Cc3c(cc(C(=O)N4CC[C@H](O)C4)cc3C(F)(F)F)C2=O)c1 [Compound 438, 6-((S)-3-hydroxypyrrolidine-1-carbonyl)-2-(3-((R)-1,1,2-trifluoro-1-(4-methyl-4H-1,2,4-triazol-3-yl)propan-2-yl)phenyl)-4-(trifluoromethyl)isoindolin-1-one] | 1.01 to 2.5 | 2.51 to 5 | 1.01 to 1.3 | 1.01 to 1.3 | < 100 nM | ≤ 100 nM | > 7.5 | 1.31 to 1.5
3 | Cn1cnnc1C(F)(F)[C@](C)(F)c1cccc(N2Cc3c(cc(N4CCNCC4)cc3C(F)(F)F)C2=O)c1 [Compound 442, (R)-6-(Piperazin-1-yl)-2-(3-(1,1,2-trifluoro-1-(4-methyl-4H-1,2,4-triazol-3-yl)propan-2-yl)phenyl)-4-(trifluoromethyl)isoindolin-1-one] | 2.51 to 5 | > 7.5 | 1.31 to 1.5 | 1.51 to 1.75 | < 100 nM | ≤ 100 nM | > 7.5 | 1.51 to 1.75
4 | Cn1cnnc1C(F)(F)[C@](C)(F)c1cccc(N2Cc3c(cc(CN4CC[C@H](F)C4)cc3C(F)(F)F)C2=O)c1 [Compound 447, 6-(((S)-3-fluoropyrrolidin-1-yl)methyl)-2-(3-((R)-1,1,2-trifluoro-1-(4-methyl-4H-1,2,4-triazol-3-yl)propan-2-yl)phenyl)-4-(trifluoromethyl)isoindolin-1-one] | 2.51 to 5 | > 7.5 | 1.31 to 1.5 | 1.51 to 1.75 | < 100 nM | ≤ 100 nM | > 7.5 | 1.51 to 1.75
5 | Cn1cnnc1C(F)(F)[C@](C)(F)c1cccc(N2Cc3c(cc(CN4CCC(F)(F)C4)cc3C(F)(F)F)C2=O)c1 [Compound 448, (R)-6-((3,3-difluoropyrrolidin-1-yl)methyl)-2-(3-(1,1,2-trifluoro-1-(4-methyl-4H-1,2,4-triazol-3-yl)propan-2-yl)phenyl)-4-(trifluoromethyl)isoindolin-1-one] | 1.01 to 2.5 | 2.51 to 5 | 1.01 to 1.3 | 1.01 to 1.3 | < 100 nM | ≤ 100 nM | > 7.5 | 1.31 to 1.5
6 | Cn1cnnc1C(F)(F)[C@](C)(F)c1cccc(N2Cc3c(cc(CN4CC[C@@H](F)C4)cc3C(F)(F)F)C2=O)c1 [Compound 450] | 2.51 to 5 | > 7.5 | 1.31 to 1.5 | 1.51 to 1.75 | < 100 nM | ≤ 100 nM | > 7.5 | 1.51 to 1.75
7 | COC1CN(Cc2cc3c(c(C(F)(F)F)c2)CN(c2cccc([C@@](C)(F)C(F)(F)c4nncn4C)c2)C3=O)C1 [Compound 452, (R)-6-((3-methoxyazetidin-1-yl)methyl)-2-(3-(1,1,2-trifluoro-1-(4-methyl-4H-1,2,4-triazol-3-yl)propan-2-yl)phenyl)-4-(trifluoromethyl)isoindolin-1-one] | 2.51 to 5 | 5 to 7.5 | 1.01 to 1.3 | 1.31 to 1.5 | < 100 nM | ≤ 100 nM | > 7.5 | 1.31 to 1.5
8 | Cn1cnnc1C(F)(F)[C@](C)(F)c1cccc(N2Cc3c(cc(CN4CC[C@@H](C#N)C4)cc3C(F)(F)F)C2=O)c1 [Compound 455, (R)-1-((3-oxo-2-(3-((R)-1,1,2-trifluoro-1-(4-methyl-4H-1,2,4-triazol-3-yl)propan-2-yl)phenyl)-7-(trifluoromethyl)isoindolin-5-yl)methyl)pyrrolidine-3-carbonitrile] | 5 to 7.5 | > 7.5 | 1.01 to 1.3 | 1.31 to 1.5 | < 100 nM | ≤ 100 nM | > 7.5 | 1.31 to 1.5
9 | C[C@H](Cc1nncn1C)c1cccc(NC(=O)c2cc3cc(N4CCNCC4)ccc3cn2)c1 [Compound 472, N-{3-[(2R)-1-(4-methyl-4H-1,2,4-triazol-3-yl)propan-2-yl]phenyl}-6-(piperazin-1-yl)isoquinoline-3-carboxamide] | < 1 | 1.01 to 2.5 | 1.01 to 1.3 | 1.01 to 1.3 | < 100 nM | ≤ 100 nM | 2.51 to 5 | 1.01 to 1.3
10 | Cn1cnnc1CC1(c2cccc(N3Cc4c(cc(CN5CC6(CC6)C5)cc4C(F)(F)F)C3=O)c2)COC1 [Compound 487, 6-{5-azaspiro[2.3]hexan-5-ylmethyl}-2-(3-{3-[(4-methyl-1,2,4-triazol-3-yl)methyl]oxetan-3-yl}phenyl)-4-(trifluoromethyl)-3H-isoindol-1-one] | > 7.5 | > 7.5 | 1.31 to 1.5 | 1.31 to 1.5 | < 100 nM | ≤ 100 nM |  | 
11 | Cn1cnnc1CC1(c2cccc(NC(=O)c3cc(CN4CC[C@H](F)C4)cc(C4CC4)n3)c2)COC1 [Compound 496, 6-cyclopropyl-4-{[(3S)-3-fluoropyrrolidin-1-yl]methyl}-N-(3-{3-[(4-methyl-1,2,4-triazol-3-yl)methyl]oxetan-3-yl}phenyl)pyridine-2-carboxamide] | > 7.5 | > 7.5 | 1.51 to 1.75 | 1.51 to 1.75 | < 100 nM | ≤ 100 nM |  | 
12 | Cn1cnnc1CC1(c2cccc(NC(=O)c3cc(CN4CCC5(CC5)C4)cc(C4CC4)n3)c2)COC1 [Compound 519, 4-((5-azaspiro[2.4]heptan-5-yl)methyl)-6-cyclopropyl-N-(3-(3-((4-methyl-4H-1,2,4-triazol-3-yl)methyl)oxetan-3-yl)phenyl)picolinamide] | > 7.5 | > 7.5 | 1.31 to 1.5 | 1.31 to 1.5 | < 100 nM | ≤ 100 nM |  | 
13 | Cn1cnnc1CC1(c2cccc(N3Cc4c(cc(CN5CCC6(CC6)C5)cc4C(F)(F)F)C3=O)c2)COC1 [Compound 520, 6-((5-azaspiro[2.4]heptan-5-yl)methyl)-2-(3-(3-((4-methyl-4H-1,2,4-triazol-3-yl)methyl)oxetan-3-yl)phenyl)-4-(trifluoromethyl)isoindolin-1-one] | > 7.5 | > 7.5 | 1.31 to 1.5 | 1.31 to 1.5 | < 100 nM | ≤ 100 nM |  | 
14 | C[C@@H](c1cc2c(c(C(F)(F)F)c1)CN(c1cccc(C3(Cc4nncn4C)COC3)c1)C2=O)N1C[C@H]2C[C@H]2C1 [Compound 541a, 6-((1S)-1-(3-azabicyclo[3.1.0]hexan-3-yl)ethyl)-2-(3-(3-((4-methyl-4H-1,2,4-triazol-3-yl)methyl)oxetan-3-yl)phenyl)-4-(trifluoromethyl)isoindolin-1-one] | > 7.5 | > 7.5 | 1.31 to 1.5 | 1.31 to 1.5 | < 100 nM | ≤ 100 nM |  | 
15 | C[C@@H](c1cc2c(c(C(F)(F)F)c1)CN(c1cccc(C3(Cc4nncn4C)COC3)c1)C2=O)N1CCC(C)(F)CC1 [Example 553a, (S)-6-(1-(4-fluoro-4-methylpiperidin-1-yl)ethyl)-2-(3-(3-((4-methyl-4H-1,2,4-triazol-3-yl)methyl)oxetan-3-yl)phenyl)-4-(trifluoromethyl)isoindolin-1-one] | > 7.5 | > 7.5 | > 1.76 | > 1.76 | < 100 nM | ≤ 100 nM |  | 
